{"source": "paper PMC5218480", "about": "(PLoS ONE, 2017)", "system": "MV-4-11 cells", "assay": "Gene expression microarray analysis (Affymetrix PrimeView) and GSEA", "format": "cell-based, human", "set-up": "RFU PODN (11730768_x_at) / Fold change /veh PODN (11730768_x_at) / RFU LINC00158 (11744669_a_at) / Fold change /veh LINC00158 (11744669_a_at) / RFU DUSP10 (11751237_a_at) / Fold change /veh DUSP10 (11751237_a_at) / RFU ID3 (11757404_x_at) / Fold change /veh ID3 (11757404_x_at) / RFU PLEKHG5 (11737974_s_at) / Fold change /veh PLEKHG5 (11737974_s_at) / RFU LRRC4B (11730491_at) / Fold change /veh LRRC4B (11730491_at) / RFU GIMAP4 (11747438_a_at) / Fold change /veh GIMAP4 (11747438_a_at) / RFU KRT8 (11758183_x_at) / Fold change /veh KRT8 (11758183_x_at) / RFU CNN1 (11734310_a_at) / Fold change /veh CNN1 (11734310_a_at) / RFU VPS37D (11726825_at) / Fold change /veh VPS37D (11726825_at) / RFU C10orf10 (11716522_x_at) / Fold change /veh C10orf10 (11716522_x_at) / RFU KIR2DL2 /// KIR2DL4 /// KIR2DL5A /// KIR2DL5B /// KIR2DS1 /// KIR2DS2 /// KIR2DS3 /// KIR2DS4 /// KIR3DL3 /// KIR3DL3 /// KIR3DS1 (11738374_at) / Fold change /veh KIR2DL2 /// KIR2DL4 /// KIR2DL5A /// KIR2DL5B /// KIR2DS1 /// KIR2DS2 /// KIR2DS3 /// KIR2DS4 /// KIR3DL3 /// KIR3DL3 /// KIR3DS1 (11738374_at) / RFU C1QL1 (11718748_at) / Fold change /veh C1QL1 (11718748_at) / RFU TMPRSS4 (11747572_a_at) / Fold change /veh TMPRSS4 (11747572_a_at) / RFU HAMP (11756126_x_at) / Fold change /veh HAMP (11756126_x_at) / RFU RNFT2 (11725882_a_at) / Fold change /veh RNFT2 (11725882_a_at) / RFU NR4A2 (11747474_a_at) / Fold change /veh NR4A2 (11747474_a_at) / RFU ABCC12 (11746883_a_at) / Fold change /veh ABCC12 (11746883_a_at) / RFU TMEM136 (11760407_x_at) / Fold change /veh TMEM136 (11760407_x_at) / RFU CLDN22 /// WWC2 (11732394_at) / Fold change /veh CLDN22 /// WWC2 (11732394_at) / RFU HLA-DPB1 (11760878_x_at) / Fold change /veh HLA-DPB1 (11760878_x_at) / RFU SPINT1 (11716480_a_at) / Fold change /veh SPINT1 (11716480_a_at) / RFU GAP43 (11754022_s_at) / Fold change /veh GAP43 (11754022_s_at) / RFU A4GNT (11735810_at) / Fold change /veh A4GNT (11735810_at) / RFU PRB3 (11715151_x_at) / Fold change /veh PRB3 (11715151_x_at) / RFU TUBB4B (11761932_at) / Fold change /veh TUBB4B (11761932_at) / RFU CAPN14 (11732068_a_at) / Fold change /veh CAPN14 (11732068_a_at) / RFU TMCC2 (11721928_a_at) / Fold change /veh TMCC2 (11721928_a_at) / RFU IRGQ (11745062_a_at) / Fold change /veh IRGQ (11745062_a_at) / RFU FAM174B (11720279_a_at) / Fold change /veh FAM174B (11720279_a_at) / RFU TMPRSS4 (11748680_a_at) / Fold change /veh TMPRSS4 (11748680_a_at) / RFU FAM212B (11763350_a_at) / Fold change /veh FAM212B (11763350_a_at) / RFU PLEKHG5 (11743358_a_at) / Fold change /veh PLEKHG5 (11743358_a_at) / RFU ZSCAN30 (11745921_a_at) / Fold change /veh ZSCAN30 (11745921_a_at) / RFU CMKLR1 (11741424_a_at) / Fold change /veh CMKLR1 (11741424_a_at) / RFU LOC101060620 /// MAPK8IP1 (11723275_at) / Fold change /veh LOC101060620 /// MAPK8IP1 (11723275_at) / RFU SPTSSB (11747773_x_at) / Fold change /veh SPTSSB (11747773_x_at) / RFU PRSS12 (11739890_at) / Fold change /veh PRSS12 (11739890_at) / RFU BIN1 (11741810_x_at) / Fold change /veh BIN1 (11741810_x_at) / RFU WNT11 (11732464_a_at) / Fold change /veh WNT11 (11732464_a_at) / RFU C10orf10 (11716521_a_at) / Fold change /veh C10orf10 (11716521_a_at) / RFU C5orf56 (11738089_at) / Fold change /veh C5orf56 (11738089_at) / RFU CYB561 (11721691_x_at) / Fold change /veh CYB561 (11721691_x_at) / RFU ANKRD19P (11752326_a_at) / Fold change /veh ANKRD19P (11752326_a_at) / RFU OR2T12 /// OR2T33 /// OR2T8 (11738714_s_at) / Fold change /veh OR2T12 /// OR2T33 /// OR2T8 (11738714_s_at) / RFU VCAN (11748164_a_at) / Fold change /veh VCAN (11748164_a_at) / RFU JSRP1 (11732532_at) / Fold change /veh JSRP1 (11732532_at) / RFU KRTAP10-11 (11738290_x_at) / Fold change /veh KRTAP10-11 (11738290_x_at) / RFU MYO3A (11730013_a_at) / Fold change /veh MYO3A (11730013_a_at) / RFU EBF3 (11725865_a_at) / Fold change /veh EBF3 (11725865_a_at) / RFU CAMK2N1 (11719241_x_at) / Fold change /veh CAMK2N1 (11719241_x_at) / RFU C5orf56 (11738088_a_at) / Fold change /veh C5orf56 (11738088_a_at) / RFU OLFML3 (11715873_a_at) / Fold change /veh OLFML3 (11715873_a_at) / RFU LOC100653217 /// NTM (11731650_a_at) / Fold change /veh LOC100653217 /// NTM (11731650_a_at) / RFU MAPK11 (11762145_a_at) / Fold change /veh MAPK11 (11762145_a_at) / RFU FIZ1 (11724087_x_at) / Fold change /veh FIZ1 (11724087_x_at) / RFU OASL (11726364_x_at) / Fold change /veh OASL (11726364_x_at) / RFU SOX15 (11748057_x_at) / Fold change /veh SOX15 (11748057_x_at) / RFU CD79A (11719716_a_at) / Fold change /veh CD79A (11719716_a_at) / RFU HIST1H1D (11736915_at) / Fold change /veh HIST1H1D (11736915_at) / RFU CASKIN2 (11723855_a_at) / Fold change /veh CASKIN2 (11723855_a_at) / RFU LOC730098 (11760151_x_at) / Fold change /veh LOC730098 (11760151_x_at) / RFU OR4N2 (11742367_at) / Fold change /veh OR4N2 (11742367_at) / RFU PRRT2 (11749266_a_at) / Fold change /veh PRRT2 (11749266_a_at) / RFU SNX32 (11753110_a_at) / Fold change /veh SNX32 (11753110_a_at) / RFU CDHR5 (11726645_a_at) / Fold change /veh CDHR5 (11726645_a_at) / RFU RCAN1 (11760418_a_at) / Fold change /veh RCAN1 (11760418_a_at) / RFU FAM167A (11723789_a_at) / Fold change /veh FAM167A (11723789_a_at) / RFU FAM26E (11764081_at) / Fold change /veh FAM26E (11764081_at) / RFU ISYNA1 (11749810_s_at) / Fold change /veh ISYNA1 (11749810_s_at) / RFU ACY1 (11761880_at) / Fold change /veh ACY1 (11761880_at) / RFU 11764098_at / Fold change /veh 11764098_at / RFU SAMD14 (11745864_x_at) / Fold change /veh SAMD14 (11745864_x_at) / RFU NPB (11741838_a_at) / Fold change /veh NPB (11741838_a_at) / RFU TMPRSS6 (11731388_a_at) / Fold change /veh TMPRSS6 (11731388_a_at) / RFU KRTAP10-2 (11738614_at) / Fold change /veh KRTAP10-2 (11738614_at) / RFU ARHGAP8 /// PRR5-ARHGAP8 (11727945_x_at) / Fold change /veh ARHGAP8 /// PRR5-ARHGAP8 (11727945_x_at) / RFU KRTAP5-7 /// NADSYN1 (11734609_at) / Fold change /veh KRTAP5-7 /// NADSYN1 (11734609_at) / RFU RASL12 (11751679_a_at) / Fold change /veh RASL12 (11751679_a_at) / RFU CDKN2B (11736163_a_at) / Fold change /veh CDKN2B (11736163_a_at) / RFU PRF1 (11729649_at) / Fold change /veh PRF1 (11729649_at) / RFU, ZNF638 /// ZNF638-IT1 / Fold change vs veh, ZNF638 /// ZNF638-IT1 / RFU, PANK3 / Fold change vs veh, PANK3 / RFU, SH3YL1 / Fold change vs veh, SH3YL1 / RFU, ZEB2 / Fold change vs veh, ZEB2 / RFU, NRIP1 / Fold change vs veh, NRIP1 / RFU, PTTG1IP / Fold change vs veh, PTTG1IP / RFU, CAPN2 / Fold change vs veh, CAPN2 / RFU, MED14 / Fold change vs veh, MED14 / RFU, SNORA58 / Fold change vs veh, SNORA58 / RFU, C1orf63 / Fold change vs veh, C1orf63 / RFU, LRRFIP1 / Fold change vs veh, LRRFIP1 / RFU, NDUFAF7 / Fold change vs veh, NDUFAF7 / RFU, SLC12A2 / Fold change vs veh, SLC12A2 / RFU, IBTK / Fold change vs veh, IBTK / RFU, ESF1 / Fold change vs veh, ESF1 / Fold change vs veh, TMEM50B / RFU, TAOK1 / Fold change vs veh, TAOK1 / RFU, ACBD3 / Fold change vs veh, ACBD3 / RFU, TMA16 / Fold change vs veh, TMA16 / RFU, RWDD3 / Fold change vs veh, RWDD3 / RFU, BCAT1 / Fold change vs veh, BCAT1 / RFU, EDEM3 / Fold change vs veh, EDEM3 / RFU, TMEM33 / Fold change vs veh, TMEM33 / RFU, WDR75 / Fold change vs veh, WDR75 / RFU, AHCTF1 / Fold change vs veh, AHCTF1 / RFU, TFRC / Fold change vs veh, TFRC / RFU, ZDHHC17 / Fold change vs veh, ZDHHC17 / RFU, NOM1 / Fold change vs veh, NOM1 / RFU, ARL8B / Fold change vs veh, ARL8B / RFU, ZBTB11 / Fold change vs veh, ZBTB11 / RFU, TAMM41 / Fold change vs veh, TAMM41 / RFU, KIAA1704 /// LOC100996395 / Fold change vs veh, KIAA1704 /// LOC100996395 / RFU, ING1 / Fold change vs veh, ING1 / RFU, TRMT61B / Fold change vs veh, TRMT61B / RFU, FUBP3 / Fold change vs veh, FUBP3 / RFU, TP53 / Fold change vs veh, TP53 / RFU, TNKS2 / Fold change vs veh, TNKS2 / RFU, ZFP14 / Fold change vs veh, ZFP14 / RFU, ACTR2 / Fold change vs veh, ACTR2 / RFU, PPP3R1 / Fold change vs veh, PPP3R1 / RFU, PIK3R1 / Fold change vs veh, PIK3R1 / RFU, HNRNPA1 / Fold change vs veh, HNRNPA1 / RFU, RNF170 / Fold change vs veh, RNF170 / RFU, ZNF28 / Fold change vs veh, ZNF28 / RFU, RNGTT / Fold change vs veh, RNGTT / RFU, OGT / Fold change vs veh, OGT / RFU, BRD1 / Fold change vs veh, BRD1 / RFU, MARS / Fold change vs veh, MARS / RFU, ZNF655 / Fold change vs veh, ZNF655 / RFU, FAHD1 / Fold change vs veh, FAHD1 / RFU, BDP1 / Fold change vs veh, BDP1 / RFU, LRRCC1 / Fold change vs veh, LRRCC1 / RFU, ARID1A / Fold change vs veh, ARID1A / RFU, ZNF146 / Fold change vs veh, ZNF146 / RFU, ZNF330 / Fold change vs veh, ZNF330 / RFU, GPN3 / Fold change vs veh, GPN3 / RFU, C9orf123 / Fold change vs veh, C9orf123 / RFU, N4BP2L2 / Fold change vs veh, N4BP2L2 / RFU, ARFIP1 / Fold change vs veh, ARFIP1 / RFU, FAM179B / Fold change vs veh, FAM179B / RFU, BCL10 / Fold change vs veh, BCL10 / RFU, UHRF1BP1L / Fold change vs veh, UHRF1BP1L / RFU, BET1 / Fold change vs veh, BET1 / RFU, CNOT2 / Fold change vs veh, CNOT2 / RFU, ZNF268 / Fold change vs veh, ZNF268 / Fold change vs veh, ZNF507 / RFU, DGCR2 / Fold change vs veh, DGCR2 / RFU, WDSUB1 / Fold change vs veh, WDSUB1 / Fold change vs veh, HSP90B1 /// MIR3652 / RFU, ADSS / Fold change vs veh, ADSS / RFU, GK / Fold change vs veh, GK / RFU, ZNF148 / Fold change vs veh, ZNF148 / RFU, TAF9 / Fold change vs veh, TAF9 / RFU, SLC1A5 / Fold change vs veh, SLC1A5 / RFU, SLMO2 / Fold change vs veh, SLMO2 / RFU, ABCC4 / Fold change vs veh, ABCC4 / RFU, LOC101060439 /// RAP1B / Fold change vs veh, LOC101060439 /// RAP1B / RFU, RFX7 / Fold change vs veh, RFX7 / RFU, GTPBP10 / Fold change vs veh, GTPBP10 / RFU, CNEP1R1 / Fold change vs veh, CNEP1R1 / RFU, BIVM-ERCC5 /// ERCC5 / Fold change vs veh, BIVM-ERCC5 /// ERCC5 / RFU, ILF3 / Fold change vs veh, ILF3 / RFU 11762660_at / Fold change /veh 11762660_at / RFU VCAN (11757783_s_at) / Fold change /veh VCAN (11757783_s_at) / RFU DDX43 (11728927_at) / Fold change /veh DDX43 (11728927_at) / RFU KRT8 (11758188_x_at) / Fold change /veh KRT8 (11758188_x_at) / RFU NKD1 (11759106_at) / Fold change /veh NKD1 (11759106_at) / RFU SRD5A1 (11742802_a_at) / Fold change /veh SRD5A1 (11742802_a_at) / RFU TPSAB1 /// TPSB2 (11721975_s_at) / Fold change /veh TPSAB1 /// TPSB2 (11721975_s_at) / RFU GSTM3 (11746129_a_at) / Fold change /veh GSTM3 (11746129_a_at) / RFU IL23R (11737362_x_at) / Fold change /veh IL23R (11737362_x_at) / RFU TMEM51 (11727254_a_at) / Fold change /veh TMEM51 (11727254_a_at) / RFU PIWIL2 (11732686_x_at) / Fold change /veh PIWIL2 (11732686_x_at) / RFU ORM1 (11744905_x_at) / Fold change /veh ORM1 (11744905_x_at) / RFU CCDC152 (11743942_at) / Fold change /veh CCDC152 (11743942_at) / RFU ECM1 (11717891_a_at) / Fold change /veh ECM1 (11717891_a_at) / RFU IL23R (11748794_a_at) / Fold change /veh IL23R (11748794_a_at) / RFU TNFAIP8L3 (11732012_x_at) / Fold change /veh TNFAIP8L3 (11732012_x_at) / RFU MBOAT4 (11741988_at) / Fold change /veh MBOAT4 (11741988_at) / RFU 11764193_at / Fold change /veh 11764193_at / RFU TMEM53 (11763286_at) / Fold change /veh TMEM53 (11763286_at) / RFU MAGEB2 (11727129_at) / Fold change /veh MAGEB2 (11727129_at) / RFU TMEM200A (11744735_a_at) / Fold change /veh TMEM200A (11744735_a_at) / RFU CCDC152 (11751479_a_at) / Fold change /veh CCDC152 (11751479_a_at) / RFU FAM211A (11726209_a_at) / Fold change /veh FAM211A (11726209_a_at) / RFU RGS16 (11746705_a_at) / Fold change /veh RGS16 (11746705_a_at) / RFU VCAN (11755009_s_at) / Fold change /veh VCAN (11755009_s_at) / RFU RHOB (11743442_s_at) / Fold change /veh RHOB (11743442_s_at) / RFU RGS16 (11720943_a_at) / Fold change /veh RGS16 (11720943_a_at) / RFU RGS16 (11720944_at) / Fold change /veh RGS16 (11720944_at) / RFU, VPS4B / Fold change vs veh, VPS4B / RFU, CREB1 / Fold change vs veh, CREB1 / RFU, DNAJC13 / Fold change vs veh, DNAJC13 / RFU, GNAQ / Fold change vs veh, GNAQ / RFU, CDK5R1 / Fold change vs veh, CDK5R1 / RFU, ZRANB3 / Fold change vs veh, ZRANB3 / RFU, CUL4A / Fold change vs veh, CUL4A / RFU, CCNY / Fold change vs veh, CCNY / RFU, UFL1 / Fold change vs veh, UFL1 / RFU, COG3 / Fold change vs veh, COG3 / RFU, DIAPH2 / Fold change vs veh, DIAPH2 / RFU, SKA2 / Fold change vs veh, SKA2 / RFU, AFF3 / Fold change vs veh, AFF3 / RFU, LMF1 / Fold change vs veh, LMF1 / RFU, IPO11 / Fold change vs veh, IPO11 / RFU, DFFB / Fold change vs veh, DFFB / RFU, FOXP1 / Fold change vs veh, FOXP1 / RFU, CARD8 / Fold change vs veh, CARD8 / RFU, STRN3 / Fold change vs veh, STRN3 / RFU, ADK / Fold change vs veh, ADK / RFU, RASSF2 / Fold change vs veh, RASSF2 / RFU, WIPF1 / Fold change vs veh, WIPF1 / RFU, LARP1B / Fold change vs veh, LARP1B / RFU, RASA1 / Fold change vs veh, RASA1 / RFU, RB1 / Fold change vs veh, RB1 / RFU, PPFIA1 / Fold change vs veh, PPFIA1 / RFU, MAT2A / Fold change vs veh, MAT2A / RFU, CCT5 / Fold change vs veh, CCT5 / RFU, WDR92 / Fold change vs veh, WDR92 / RFU, CUX1 / Fold change vs veh, CUX1 / RFU, TTC7A / Fold change vs veh, TTC7A / RFU, TMEM135 / Fold change vs veh, TMEM135 / RFU, DEPTOR / Fold change vs veh, DEPTOR / RFU, CPM / Fold change vs veh, CPM / RFU, DNAJB6 / Fold change vs veh, DNAJB6 / RFU, CACNA2D3 / Fold change vs veh, CACNA2D3 / RFU, DTX4 / Fold change vs veh, DTX4 / RFU, TFCP2 / Fold change vs veh, TFCP2 / RFU, GMCL1 /// GMCL1P1 / Fold change vs veh, GMCL1 /// GMCL1P1 / RFU, AEBP2 / Fold change vs veh, AEBP2 / RFU, SNHG1 /// SNORD22 /// SNORD25 /// SNORD26 /// SNORD27 /// SNORD28 /// SNORD29 /// SNORD31 / Fold change vs veh, SNHG1 /// SNORD22 /// SNORD25 /// SNORD26 /// SNORD27 /// SNORD28 /// SNORD29 /// SNORD31 / Fold change (Aza/veh), C12orf56 (ProbeSet 11735607_a_at) / Fold change (ACY-1035/veh), C12orf56 (ProbeSet 11735607_a_at) / Fold change (Aza/veh), FGFR1OP (ProbeSet 11751329_s_at) / Fold change (ACY-1035/veh), FGFR1OP (ProbeSet 11751329_s_at) / Fold change (Aza/veh), VPS36 (ProbeSet 11739960_a_at) / Fold change (ACY-1035/veh), VPS36 (ProbeSet 11739960_a_at) / RFU SYPL1 (11715823_x_at) / Fold change /veh SYPL1 (11715823_x_at) / RFU IGFBP7 (11715501_s_at) / Fold change /veh IGFBP7 (11715501_s_at) / RFU REEP3 (11722064_at) / Fold change /veh REEP3 (11722064_at) / RFU IGLL1 (11728026_x_at) / Fold change /veh IGLL1 (11728026_x_at): dose or concentration left out as unconfirmed", "settings": "MV-4-11 cells, 48 hours"}
{"molecule": "Nc1ccc(-c2cccs2)cc1NC(=O)c1ccc2c(c1)cc(C1CC1)n2CCN1CCOCC1", "note": "[ACY-1035]", "values": [{"measurement": "RFU TMCC2 (11721928_a_at)", "result": 13.59, "unit": "RFU"}]}
